Measured values as given in ChEMBL document CHEMBL1201862, “PubChem BioAssay data set” (2004).
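1) Cells in 96-well plates. 2) Compound, 48 h, 5 concentrations. 3) Linear interpolation between surrounding doses. 4) Unreached endpoint = highest concentration. GI50: concentration for 50% inhibition of growth.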 Calls of active or inactive are those of the source. Cut-off read from the data, not from the text of the source: active = GI50 up to about 1.1 µM and inactive = higher.

Tests used:
Experiment in all cases: inhibition of tumour cell growth, NCI panel, 48 h
OVCAR-8 = tested on: OVCAR-8
A498 = tested on: A498
MCF7 = tested on: MCF7
NCI-H23 = tested on: NCI-H23
NCI-H226 = tested on: NCI-H226
LOX IMVI = tested on: LOX IMVI
NCI/ADR-RES = tested on: NCI/ADR-RES
NCI-H460 = tested on: NCI-H460
SW-620 = tested on: SW-620
SK-MEL-2 = tested on: SK-MEL-2
HT-29 = tested on: HT-29
HOP-62 = tested on: HOP-62
SF-268 = tested on: SF-268
HCC 2998 = tested on: HCC 2998
EKVX = tested on: EKVX
T47D = tested on: T47D
SK-OV-3 = tested on: SK-OV-3
OVCAR-4 = tested on: OVCAR-4
MDA-MB-435 = tested on: MDA-MB-435
A549 = tested on: A549

Row | SMILES | GI50 (OVCAR-8) | GI50 (A498) | GI50 (MCF7) | GI50 (NCI-H23) | GI50 (NCI-H226) | GI50 (LOX IMVI) | GI50 (NCI/ADR-RES) | GI50 (NCI-H460) | GI50 (SW-620) | GI50 (SK-MEL-2) | GI50 (HT-29) | GI50 (HOP-62) | GI50 (SF-268) | GI50 (HCC 2998) | GI50 (EKVX) | GI50 (T47D) | GI50 (SK-OV-3) | GI50 (OVCAR-4) | GI50 (MDA-MB-435) | GI50 (A549)
1 | CC(=O)OCC1=CC2OC(=O)C3=COC(OC4OC(CO)C(O)C(O)C4O)C1C32 (configuration not stated) | > 100 µM (inactive) | > 100 µM (inactive) | > 100 µM (inactive) | > 100 µM (inactive) | > 100 µM (inactive) | > 100 µM (inactive) | > 100 µM (inactive) | > 10 µM (inactive) | > 100 µM (inactive) | > 100 µM (inactive) | > 100 µM (inactive) | > 100 µM (inactive) | > 100 µM (inactive) | > 100 µM (inactive) | > 100 µM (inactive) | > 100 µM (inactive) | > 100 µM (inactive) | > 100 µM (inactive) | > 100 µM (inactive) | > 100 µM (inactive)
2 | CC(C)N1C=[N+](C(C)C)CC1 | > 100 µM (inactive) | > 100 µM (inactive) | > 100 µM (inactive) | > 100 µM (inactive) | > 100 µM (inactive) | > 100 µM (inactive) | > 100 µM (inactive) | > 100 µM (inactive) | > 100 µM (inactive) | > 100 µM (inactive) | > 100 µM (inactive) | > 100 µM (inactive) | > 100 µM (inactive) | > 100 µM (inactive) | > 100 µM (inactive) | > 100 µM (inactive) | > 100 µM (inactive) | > 100 µM (inactive) | > 100 µM (inactive) | > 100 µM (inactive)
3 | CC1=NN(c2ccccc2)C(=O)/C1=C/c1ccc(O)cc1 | > 100 µM (inactive) | > 100 µM (inactive) | > 100 µM (inactive) | > 100 µM (inactive) | > 100 µM (inactive) | > 100 µM (inactive) | > 100 µM (inactive) | > 100 µM (inactive) | > 100 µM (inactive) | > 100 µM (inactive) | > 100 µM (inactive) |  | > 100 µM (inactive) | > 100 µM (inactive) | > 100 µM (inactive) | > 100 µM (inactive) | > 100 µM (inactive) | > 100 µM (inactive) | > 100 µM (inactive) | > 100 µM (inactive)
4 | C=C1C(=O)O[C@@H]2C[C@@]3(C)CC(=O)C=C(C)[C@@H]3C[C@H]12 | 15 µM (inactive) | > 10 µM (inactive) | 3.22 µM (inactive) | 13.8 µM (inactive) | 36.8 µM (inactive) | 13.9 µM (inactive) | 11.3 µM (inactive) |  | 3.33 µM (inactive) | 12.9 µM (inactive) | 6.14 µM (inactive) | 18 µM (inactive) | 11.8 µM (inactive) | 14.2 µM (inactive) | 12.2 µM (inactive) | 11.2 µM (inactive) | 37.9 µM (inactive) | 9.1 µM (inactive) | 5.66 µM (inactive) | 29.6 µM (inactive)
5 | C/C(=N\Nc1nc2ccccc2n1C)c1cnccn1 | 0.0615 µM (active) | 0.684 µM (active) | 0.0246 µM (active) | 0.105 µM (active) | 0.256 µM (active) | 0.129 µM (active) | 0.164 µM (active) | 0.223 µM (active) | 0.0418 µM (active) | 0.839 µM (active) | 0.0418 µM (active) | 0.537 µM (active) | 0.0726 µM (active) | 1.33 µM (inactive) | 0.0424 µM (active) | 0.0702 µM (active) | 0.292 µM (active) | 0.0504 µM (active) | 0.55 µM (active) | 0.218 µM (active)
6 | N#C/C(=C\n1ccc(=O)[nH]c1=S)C(N)=O | > 100 µM (inactive) | > 100 µM (inactive) | > 100 µM (inactive) | > 100 µM (inactive) | > 100 µM (inactive) | > 100 µM (inactive) | > 100 µM (inactive) | > 100 µM (inactive) | > 100 µM (inactive) | > 100 µM (inactive) | > 100 µM (inactive) | > 100 µM (inactive) | > 100 µM (inactive) | > 100 µM (inactive) | > 100 µM (inactive) | > 100 µM (inactive) | > 100 µM (inactive) | > 100 µM (inactive) | > 100 µM (inactive) | > 100 µM (inactive)
7 | CC(=O)O[C@H]1C(=O)[C@@]2(C)[C@H]([C@H](OC(=O)c3ccncc3)[C@]3(O)C[C@H](OC(=O)[C@H](O)[C@@H](NC(=O)c4ccccc4)c4ccccc4)C(C)=C1C3(C)C)[C@]1(OC(C)=O)CO[C@@H]1C[C@@H]2O | 8.53 µM (inactive) | > 15.5 µM (inactive) | 0.918 µM (active) | 12.6 µM (inactive) | 16.1 µM (inactive) | 1.42 µM (inactive) | > 25 µM (inactive) | 9.14 µM (inactive) | 1.56 µM (inactive) | 6.71 µM (inactive) | 1.42 µM (inactive) | > 12.4 µM (inactive) | > 11.6 µM (inactive) | 3.24 µM (inactive) | > 25 µM (inactive) | > 5.94 µM (inactive) | 14.2 µM (inactive) | > 25 µM (inactive) | 0.714 µM (active) | 18 µM (inactive)
8 | NC(=O)C(=CNC(=S)Nc1ccccc1)C(N)=O | > 100 µM (inactive) | > 100 µM (inactive) | > 100 µM (inactive) | > 100 µM (inactive) | > 100 µM (inactive) | > 100 µM (inactive) | > 100 µM (inactive) | > 100 µM (inactive) | > 100 µM (inactive) | > 100 µM (inactive) | > 100 µM (inactive) | > 100 µM (inactive) | > 100 µM (inactive) | > 100 µM (inactive) | > 100 µM (inactive) | 97.7 µM (inactive) | > 100 µM (inactive) | > 100 µM (inactive) | > 100 µM (inactive) | > 100 µM (inactive)
9 | O=[N+]([O-])C1(CO)COC2(OC1)c1ccccc1-c1ccccc12 | > 78.3 µM (inactive) | > 100 µM (inactive) | 48 µM (inactive) | > 100 µM (inactive) | > 100 µM (inactive) | 45.6 µM (inactive) | > 48.3 µM (inactive) | > 77.4 µM (inactive) | 21.6 µM (inactive) | > 100 µM (inactive) | > 63.5 µM (inactive) | > 100 µM (inactive) | 52.8 µM (inactive) | > 100 µM (inactive) | > 100 µM (inactive) | 28.7 µM (inactive) | > 100 µM (inactive) | > 100 µM (inactive) | > 100 µM (inactive) | > 100 µM (inactive)
10 | O=[N+]([O-])c1cccc2nc3ccccc3c(NCCN(CCO)CCO)c12 | 0.00351 µM (active) | 0.00501 µM (active) | 0.00206 µM (active) | 0.00222 µM (active) | 0.00102 µM (active) | 0.00701 µM (active) | 0.128 µM (active) | 0.000815 µM (active) | 0.000774 µM (active) | 0.00527 µM (active) | 0.00256 µM (active) | 0.00282 µM (active) | 0.00423 µM (active) | 0.00235 µM (active) | 0.00731 µM (active) | 0.00367 µM (active) | 0.00989 µM (active) | 0.00453 µM (active) | 0.00141 µM (active) | 0.00272 µM (active)
11 | C=C=C(CC(CC(=C)Br)(C(=O)OC)C(=O)OC)S(=O)(=O)c1ccccc1 | 1.29 µM (inactive) | 5.6 µM (inactive) | 1.87 µM (inactive) | 2.05 µM (inactive) | 6.12 µM (inactive) | 0.419 µM (active) | 2.26 µM (inactive) | 5.86 µM (inactive) | 1.58 µM (inactive) | 2.5 µM (inactive) | 1.62 µM (inactive) | 5.21 µM (inactive) | 2.37 µM (inactive) | 2.58 µM (inactive) | 2.82 µM (inactive) | 3.77 µM (inactive) | 16.6 µM (inactive) | 8.89 µM (inactive) | 1.74 µM (inactive) | 2.78 µM (inactive)
12 | O=C(CSCC(=O)N/N=C\c1ccccc1F)N/N=C\c1ccccc1F | 49.9 µM (inactive) | > 100 µM (inactive) | > 100 µM (inactive) | > 100 µM (inactive) | 87.5 µM (inactive) | > 100 µM (inactive) | 14 µM (inactive) | 99.5 µM (inactive) | > 100 µM (inactive) | > 100 µM (inactive) | > 100 µM (inactive) |  | > 100 µM (inactive) | 38.5 µM (inactive) | > 100 µM (inactive) | 77.6 µM (inactive) | > 100 µM (inactive) | > 100 µM (inactive) | 68.5 µM (inactive) | > 100 µM (inactive)
13 | O=[N+]([O-])C[C@@]12O[C@]3(O)C4C5CC(C6C5C3C61)C42 (some centres not stated) | > 100 µM (inactive) | > 100 µM (inactive) | > 100 µM (inactive) | > 100 µM (inactive) | > 100 µM (inactive) | > 100 µM (inactive) | > 100 µM (inactive) | > 100 µM (inactive) | > 100 µM (inactive) | > 100 µM (inactive) | > 100 µM (inactive) | > 100 µM (inactive) | > 100 µM (inactive) | < 0.01 µM (active) | > 100 µM (inactive) | > 100 µM (inactive) | > 100 µM (inactive) | > 100 µM (inactive) | > 100 µM (inactive) | > 100 µM (inactive)
14 | Cc1ccc(C(=O)Nc2ccc(CP(=O)(O)O)cc2)cc1NC(=O)Nc1cc(C(=O)Nc2ccc(CP(=O)(O)O)cc2)ccc1C | > 100 µM (inactive) | > 100 µM (inactive) | > 100 µM (inactive) | > 100 µM (inactive) | > 100 µM (inactive) | > 100 µM (inactive) | > 100 µM (inactive) | > 100 µM (inactive) | > 100 µM (inactive) | > 100 µM (inactive) | > 100 µM (inactive) | > 100 µM (inactive) | > 100 µM (inactive) | > 100 µM (inactive) | > 100 µM (inactive) | > 100 µM (inactive) | > 100 µM (inactive) | > 100 µM (inactive) | > 100 µM (inactive) | > 100 µM (inactive)
